Laboratory results from patent US20240279249A1, “Compound, Coating Composition Comprising Same, Organic Light-Emitting Device Using Same, and Manufacturing Method Therefor” (LG Chem, Ltd., priority 2021, published 2024).
Read-outs that look alike come from different tables or passages of the source.

Assays:
[1] = Film retention rate / solvent resistance: UV-vis absorption of heat-treated film after immersion in cyclohexanone; format: physicochemical; conditions: film from 4 wt % solution in cyclohexanone, 100 nm on quartz, heat-treated 190° C. to 200° C. in nitrogen 30 minutes, immersed in cyclohexanone 10 minutes; higher absorbance = more film retained
Procedure: Thereafter, after the substrate was heat-treated at a temperature of 190° C. to 200° C. in a nitrogen atmosphere for 30 minutes, the UV-vis absorption spectrum was measured. Subsequently, the same sample was immersed in cyclohexanone for 10 minutes and remove, the solvent was dried from the sample, and then the UV-vis absorption spectrum was also measured.
In the process of manufacturing the device, the film is retained while being cured during the heat treatment. The higher absorbance means that a relatively more residue remains on the film.

[2] = Solubility at 5 wt % relative to each solvent
From the text: In a solution process organic light emitting device, when an ink solvent is selected for the process, the ink solvent needs to dissolve both a host and a dopant.

[3] = 5 wt % relative to solvent, Acetone
[4] = 5 wt % relative to solvent, Dichloromethane
[5] = 5 wt % relative to solvent, Toluene

Q: Which results are given for C=Cc1cc(C=C)cc(-c2c(F)c(F)c(-c3c(F)c(F)c([B-](c4c(F)c(F)c(C(F)(F)F)c(F)c4F)(c4c(F)c(F)c(C(F)(F)F)c(F)c4F)c4c(F)c(F)c(C(F)(F)F)c(F)c4F)c(F)c3F)c(F)c2F)c1 [Compound 5]?
A: Absorbance @ 350 nm [1]: 0.801; Solubility in Acetone [2, 3]: Dissolved; Solubility in Dichloromethane [2, 4]: Dissolved; Solubility in Toluene [2, 5]: Dissolved

Q: For C=Cc1ccc(-c2c(F)c(F)c([B-](c3c(F)c(F)c(-c4ccc(C=C)cc4)c(F)c3F)(c3c(F)c(F)c(-c4ccc(C=C)cc4)c(F)c3F)c3c(F)c(F)c(-c4ccc(C=C)cc4)c(F)c3F)c(F)c2F)cc1.Cc1ccc([I+]c2ccc(C(C)C)cc2)cc1 [Comparative Compound 4, (4-isopropylphenyl) (p-tolyl)iodonium tetrakis(2,3,5,6-tetrafluoro-4′-vinyl-[1,1′-biphenyl]-4-yl) borate, reference compound], which “Absorbance @ 350 nm” value [1] is on record?
A: The value was 0.467.

Q: And the “Solubility in Acetone” value [2, 3]?
A: The value was “Dissolved”.

Q: What about the “Solubility in Dichloromethane” value [2, 4] of the same compound?
A: Its value is “Dissolved”.

Q: And the “Solubility in Toluene” value [2, 5]?
A: The value was “Insoluble”.

Q: For C=Cc1ccc([B-](c2c(F)c(F)c(C(F)(F)F)c(F)c2F)(c2c(F)c(F)c(C(F)(F)F)c(F)c2F)c2c(F)c(F)c(C(F)(F)F)c(F)c2F)cc1.Cc1ccc([I+]c2ccc(C(C)C)cc2)cc1 [Comparative Compound 1, (4-isopropylphenyl) (p-tolyl) iodonium tris(2,3,5,6-tetrafluoro-4-(trifluoromethyl)phenyl) (4-vinylphenyl)borate, reference compound], which “Absorbance @ 350 nm” value [1] is on record?
A: Its value is 0.483.

Q: What does the source list for C=Cc1ccc(-c2cc(-c3ccc(C=C)cc3)cc(-c3c(F)c(F)c(-c4c(F)c(F)c([B-](c5c(F)c(F)c(C(F)(F)F)c(F)c5F)(c5c(F)c(F)c(C(F)(F)F)c(F)c5F)c5c(F)c(F)c(C(F)(F)F)c(F)c5F)c(F)c4F)c(F)c3F)c2)cc1.Cc1ccc([I+]c2ccc(C(C)C)cc2)cc1 [Compound 3, (4-isopropylphenyl) (p-tolyl)iodonium (2″,2′″,3″,13′″,5″,5′″,6″,6′″-octafluoro-4-vinyl-5′-(4-vinylphenyl)-[1,1′:3′,1″:4″,1′″-quarterphenyl]-4′″-yl)tris(2,3,5,6-tetrafluoro-4-(trifluoromethyl)phenyl)borate]?
A: Absorbance @ 350 nm [1]: 0.813; Solubility in Acetone [2]: Dissolved; Solubility in Dichloromethane [2]: Dissolved; Solubility in Toluene [2]: Dissolved

Q: With Fc1c(F)c(-c2c(F)c(F)c([B-](c3c(F)c(F)c(C(F)(F)F)c(F)c3F)(c3c(F)c(F)c(C(F)(F)F)c(F)c3F)c3c(F)c(F)c(C(F)(F)F)c(F)c3F)c(F)c2F)c(F)c(F)c1-c1ccc2c(c1)CC2 [Compound 8] as the compound, how does the “Absorbance @ 350 nm” value [1] read?
A: The value was 0.546.

Q: Which “Absorbance @ 350 nm” value [1] does the source give for C=Cc1ccc(-c2c(F)c(F)c(-c3c(F)c(F)c([B-](c4c(F)c(F)c(C(F)(F)F)c(F)c4F)(c4c(F)c(F)c(C(F)(F)F)c(F)c4F)c4c(F)c(F)c(C(F)(F)F)c(F)c4F)c(F)c3F)c(F)c2F)c2ccccc12 [Compound 7] here?
A: Its value is 0.603.

Q: Which “Absorbance @ 350 nm” value [1] does the source give for Cc1ccc([I+]c2ccc(C(C)C)cc2)cc1.Fc1c(F)c([B-](c2c(F)c(F)c(C(F)(F)F)c(F)c2F)(c2c(F)c(F)c(C(F)(F)F)c(F)c2F)c2c(F)c(F)c(C(F)(F)F)c(F)c2F)c(F)c(F)c1-c1ccc2c(c1)CC2 [Comparative Compound 3, (4-isopropylphenyl) (p-tolyl)iodonium(4-(bicyclo[4.2.0]octa-1,3,5-trien-3-yl)-2,3,5,6-tetrfluorophenyl)tris(2,3,5,6-tetrafluoro-4-(trifluoromethyl)phenyl)borate, reference compound] here?
A: The value was 0.392.

Q: With “(4-isopropylphenyl) (p-tolyl)iodonium (2,3,5,6-tetrafluoro-4′-vinyl-[1,1′-biphenyl]-4-yl)tris(2,3,5,6-tetrafluoro-4-(trifluoromethyl)phenyl)borate [Compound 1]” as the compound, how does the “Absorbance @ 350 nm” value [1] read?
A: Its value is 0.802.

Q: Which “Absorbance @ 350 nm” value [1] does the source give for C=Cc1c(F)c(F)c([B-](c2c(F)c(F)c(C(F)(F)F)c(F)c2F)(c2c(F)c(F)c(C(F)(F)F)c(F)c2F)c2c(F)c(F)c(C(F)(F)F)c(F)c2F)c(F)c1F.Cc1ccc([I+]c2ccc(C(C)C)cc2)cc1 [Comparative Compound 2, (4-isopropylphenyl) (p-tolyl)iodonium tris(2,3,5,6-tetrafluoro-4-(trifluoromethyl)phenyl) (2,3,5,6-tetrafluoro-4-vinylphenyl) borate, reference compound] here?
A: Its value is 0.526.
